# According to patent US8013156B2 (Exelixis, Inc., priority 2003, dated 2011):
# Target: Tie-2 (Homo sapiens, UniProt Q02763)
# Experiment: Tie-2 tyrosine kinase activity assay (luciferase/luciferin ATP consumption with pEY substrate, or 33P-ATP incorporation)
# Format: biochemical
# Settings: human enzyme Tie-2
# Description: One measure of inhibition is Ki. […] The Ki for a compound is determined from the IC50 based on three assumptions. First, only one compound molecule binds to the enzyme and there is no cooperativity. […] Third, the enzymatic rate of the enzyme-inhibitor complex is zero. The rate data (i.e. compound concentration) are fitted to the equation:
# [formula] where V is the observed rate, Vmax, is the rate of the free enzyme, I0 is the inhibitor concentration, E0 is the enzyme concentration, and Kd is the dissociation constant of the enzyme-inhibitor complex.
# Tyrosine kinase activity is determined by 1) measurement of kinase-dependent ATP consumption by in the presence of a generic substrate such as […], tyrosine (pEY), by luciferase/luciferin-mediated chemiluminescence or; 2) incorporation of radioactive phosphate derived from ^33P-ATP into a generic substrate which has been adsorbed onto the well surface of polystyrene microtiter plates. Phosphorylated substrate products are quantified by scintillation spectrometry.
# Inhibition is indicated as IC50 with following key: A=IC50 less than 50 nM, B=IC50 greater than 50 nM, but less than or equal to 1000 nM, C=IC50 greater than 1000 nM, but less than 10,000 nM, D=IC50 10,000 nM or greater, and “-”=no data available. The abbreviation for human enzyme, Tie-2, is defined as tyrosine kinase with immunoglobulin and EGF repeats.
# Sequence of Tie-2 (Q02763 23-1124): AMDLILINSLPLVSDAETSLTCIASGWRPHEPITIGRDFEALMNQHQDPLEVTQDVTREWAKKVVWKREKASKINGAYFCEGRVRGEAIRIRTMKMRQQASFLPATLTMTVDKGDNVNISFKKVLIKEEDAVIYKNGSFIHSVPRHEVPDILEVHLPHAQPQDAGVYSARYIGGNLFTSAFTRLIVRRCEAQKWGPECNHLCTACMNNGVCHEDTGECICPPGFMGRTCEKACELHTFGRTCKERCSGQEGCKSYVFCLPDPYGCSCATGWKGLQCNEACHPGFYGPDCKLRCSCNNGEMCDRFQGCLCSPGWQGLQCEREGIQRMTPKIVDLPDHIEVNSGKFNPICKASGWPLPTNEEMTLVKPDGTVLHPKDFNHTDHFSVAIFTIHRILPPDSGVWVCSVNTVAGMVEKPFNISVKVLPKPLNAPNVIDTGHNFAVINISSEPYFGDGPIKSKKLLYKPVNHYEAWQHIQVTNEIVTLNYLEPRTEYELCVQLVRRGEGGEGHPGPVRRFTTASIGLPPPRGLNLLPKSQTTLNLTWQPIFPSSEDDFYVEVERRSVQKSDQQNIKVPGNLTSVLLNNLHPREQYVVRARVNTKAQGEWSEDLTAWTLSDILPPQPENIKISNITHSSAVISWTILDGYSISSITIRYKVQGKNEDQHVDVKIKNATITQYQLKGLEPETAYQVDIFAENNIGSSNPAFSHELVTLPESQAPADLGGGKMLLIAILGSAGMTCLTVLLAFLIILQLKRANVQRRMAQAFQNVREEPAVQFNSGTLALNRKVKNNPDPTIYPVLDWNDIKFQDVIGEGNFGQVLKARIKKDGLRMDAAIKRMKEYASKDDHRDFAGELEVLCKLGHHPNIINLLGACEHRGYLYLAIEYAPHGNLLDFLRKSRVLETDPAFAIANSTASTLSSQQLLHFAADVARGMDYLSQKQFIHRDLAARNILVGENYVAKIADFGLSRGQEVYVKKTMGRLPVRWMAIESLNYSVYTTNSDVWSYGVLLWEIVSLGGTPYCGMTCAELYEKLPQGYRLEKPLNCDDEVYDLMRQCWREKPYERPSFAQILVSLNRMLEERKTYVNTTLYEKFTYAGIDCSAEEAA
row,SMILES,IC50
1,"C[C@H]1CN(c2nccnc2OCc2ccncc2)CCN1C(=O)Nc1cc(C(F)(F)F)cc(C(F)(F)F)c1 [Example 80, (2S)-N-[3,5-bis(trifluoromethyl)phenyl]-2-methyl-4-{3-[(pyridin-4-ylmethyl)oxy]pyrazin-2-yl}piperazine-1-carboxamide]",< 50 nM
2,"C[C@H]1CN(c2nccnc2OCc2ccncc2)CCN1C(=O)Nc1cccc(C(F)(F)F)c1 [Example 81, (2S)-2-methyl-4-{3-[(pyridin-4-ylmethyl)oxy]pyrazin-2-yl}-N-[3-(trifluoromethyl)phenyl]piperazine-1-carboxamide]",< 50 nM
3,"O=C(Nc1cc(C(F)(F)F)cc(C(F)(F)F)c1)N1CCN(c2nsnc2OCc2ccnc(F)c2)CC1 [Example 82, N-[3,5-bis(trifluoromethyl)phenyl]-4-(4-{[(2-fluoropyridin-4-yl)methyl]oxy}-1,2,5-thiadiazol-3-yl)piperazine-1-carboxamide]",1000 to 10000 nM
4,"O=C(Nc1cc(C(F)(F)F)cc(C(F)(F)F)c1)N1CCN(c2nsnc2OCc2ccnc(Cl)c2)CC1 [Example 83, N-[3,5-bis(trifluoromethyl)phenyl]-4-(4-{[(2-chloropyridin-4-yl)methyl]oxy}-1,2,5-thiadiazol-3-yl)piperazine-1-carboxamide]",1000 to 10000 nM
5,"O=C(Nc1cc(C(F)(F)F)cc(C(F)(F)F)c1)N1CCN(c2nccnc2OCc2ccnc(Cl)c2)CC1 [Example 84, N-[3,5-bis(trifluoromethyl)phenyl]-4-(3-{[(2-chloropyridin-4-yl)methyl]oxy}pyrazin-2-yl)piperazine-1-carboxamide]",50 to 1000 nM
6,"O=C(Nc1cc(C(F)(F)F)cc(C(F)(F)F)c1)N1CCN(c2nsnc2OCc2ccnc(Br)c2)CC1 [Example 87, N-[3,5-bis(trifluoromethyl)phenyl]-4-(4-{[(2-bromopyridin-4-yl)methyl]oxy}-1,2,5-thiadiazol-3-yl)piperazine-1-carboxamide]",1000 to 10000 nM
7,"O=C(Nc1cc(C(F)(F)F)cc(C(F)(F)F)c1)N1CCN(c2nccnc2OCc2ccnc(F)c2)CC1 [Example 89, N-[3,5-bis(trifluoromethyl)phenyl]-4-(3-{[(2-fluoropyridin-4-yl)methyl]oxy}pyrazin-2-yl)piperazine-1-carboxamide]",50 to 1000 nM
8,"N#Cc1nc(OCc2ccncc2)c(N2CCN(C(=O)Nc3cc(C(F)(F)F)cc(C(F)(F)F)c3)CC2)nc1C#N [Example 90, N-[3,5-bis(trifluoromethyl)phenyl]-4-{5,6-dicyano-3-[(pyridin-4-ylmethyl)oxy]pyrazin-2-yl}piperazine-1-carboxamide]",50 to 1000 nM
9,"N#Cc1nc(OCc2ccncc2)c(N2CCN(C(=O)Nc3cccc(C(F)(F)F)c3)CC2)nc1C#N [Example 91, 4-{5,6-dicyano-3-[(pyridin-4-ylmethyl)oxy]pyrazin-2-yl}-N-[3-(trifluoromethyl)phenyl]piperazine-1-carboxamide]",50 to 1000 nM
10,"CCc1cccc(NC(=O)N2CCN(c3nccnc3OCc3ccncc3)CC2)c1 [Example 92, N-(3-ethylphenyl)-4-{3-[(pyridin-4-ylmethyl)oxy]pyrazin-2-yl}piperazine-1-carboxamide]",< 50 nM
11,"CCc1cccc(NC(=O)N2CCN(c3nccnc3OCc3ccncc3)CC2C)c1 (stereo not shown) [Example 93, N-(3-ethylphenyl)-2-methyl-4-{3-[(pyridin-4-ylmethyl)oxy]pyrazin-2-yl}piperazine-1-carboxamide]",< 50 nM
12,"CCc1cccc(NC(=O)N2C(C)CN(c3nccnc3OCc3ccncc3)CC2C)c1 (stereo not shown) [Example 94, N-(3-ethylphenyl)-2,6-dimethyl-4-{3-[(pyridin-4-ylmethyl)oxy]pyrazin-2-yl}piperazine-1-carboxamide]",50 to 1000 nM
13,"CCc1cccc(NC(=O)N2CCN(c3nc4ccccc4nc3OCc3ccncc3)CC2C)c1 (stereo not shown) [Example 95, N-(3-ethylphenyl)-2-methyl-4-{3-[(pyridin-4-ylmethyl)oxy]quinoxalin-2-yl}piperazine-1-carboxamide]",50 to 1000 nM
14,"O=C(Nc1cc(C(F)(F)F)cc(C(F)(F)F)c1)N1CCN(c2nccnc2CCc2ccncc2)CC1 [Example 96, N-[3,5-bis(trifluoromethyl)phenyl]-4-[3-(2-pyridin-4-ylethyl)pyrazin-2-yl]piperazine-1-carboxamide]",50 to 1000 nM
15,"O=C(Nc1cc(C(F)(F)F)cc(C(F)(F)F)c1)N1CCN(c2ncccc2OCc2ccncc2)CC1 [Example 97, N-[3,5-bis(trifluoromethyl)phenyl]-4-{3-[(pyridin-4-ylmethyl)oxy]pyridin-2-yl}piperazine-1-carboxamide]",< 50 nM
16,"Nc1cc(COc2nsnc2N2CCN(C(=O)Nc3cc(C(F)(F)F)cc(C(F)(F)F)c3)CC2)ccn1 [Example 99, 4-(4-{[(2-aminopyridin-4-yl)methyl]oxy}-1,2,5-thiadiazol-3-yl)-N-[3,5-bis(trifluoromethyl)phenyl]piperazine-1-carboxamide]",< 50 nM

row,SMILES,IC50
1,"CC(C)(C)OC(=O)Nc1cc(COc2nsnc2N2CCN(C(=O)Nc3cc(C(F)(F)F)cc(C(F)(F)F)c3)CC2)ccn1 [Example 100, 1,1-dimethylethyl {4-[({4-[4-({[3,5-bis(trifluoromethyl)phenyl]amino}carbonyl)piperazin-1-yl]-1,2,5-thiadiazol-3-yl}oxy)methyl]pyridin-2-yl}carbamate]",< 50 nM
2,"COC(=O)Nc1cc(COc2nsnc2N2CCN(C(=O)Nc3cc(C(F)(F)F)cc(C(F)(F)F)c3)CC2)ccn1 [Example 101, methyl {4-[({4-[4-({[3,5-bis(trifluoromethyl)phenyl]amino}carbonyl)piperazin-1-yl]-1,2,5-thiadiazol-3-yl}oxy)methyl]pyridin-2-yl}carbamate]",< 50 nM
3,"Nc1cc(COc2nsnc2N2CCNCC2)ccn1 [Example 102, 4-{[(4-piperazin-1-yl-1,2,5-thiadiazol-3-yl)oxy]methyl}pyridin-2-amine]",≥ 10000 nM
4,"O=C(Nc1ccc(Cl)cc1)N1CCN(c2ncccc2OCc2ccncc2)CC1 [Example 103, N-(4-chlorophenyl)-4-{3-[(pyridin-4-ylmethyl)oxy]pyridin-2-yl}piperazine-1-carboxamide]",≥ 10000 nM
5,"Nc1nccc(COc2nsnc2N2CCN(C(=O)Nc3cc(C(F)(F)F)cc(C(F)(F)F)c3)CC2)n1 [Example 104, 4-(4-{[(2-aminopyrimidin-4-yl)methyl]oxy}-1,2,5-thiadiazol-3-yl)-N-[3,5-bis(trifluoromethyl)phenyl]piperazine-1-carboxamide]",< 50 nM
6,"O=C(Nc1cccc(Cl)c1)N1CCN(c2ncccc2OCc2ccncc2)CC1 [Example 105, N-(3-chlorophenyl)-4-{3-[(pyridin-4-ylmethyl)oxy]pyridin-2-yl}piperazine-1-carboxamide]",50 to 1000 nM
7,"CCCNc1cc(COc2nsnc2N2CCNCC2)ccn1 [Example 106, 4-{[(4-piperazin-1-yl-1,2,5-thiadiazol-3-yl)oxy]methyl}-N-propylpyridin-2-amine]",≥ 10000 nM
8,"CCCNc1cc(COc2nsnc2N2CCN(C(=O)Nc3cc(C(F)(F)F)cc(C(F)(F)F)c3)CC2)ccn1 [Example 107, N-[3,5-bis(trifluoromethyl)phenyl]-4-[4-({[2-(propylamino)pyridin-4-yl]methyl}oxy)-1,2,5-thiadiazol-3-yl]piperazine-1-carboxamide]",50 to 1000 nM
9,"CNc1nccc(COc2nsnc2N2CCN(C(=O)Nc3cc(C(F)(F)F)cc(C(F)(F)F)c3)CC2)n1 [Example 108, N-[3,5-bis(trifluoromethyl)phenyl]-4-[4-({[2-(methylamino)pyrimidin-4-yl]methyl}oxy)-1,2,5-thiadiazol-3-yl]piperazine-1-carboxamide]",< 50 nM
10,"CNc1cc(COc2nsnc2N2CCNCC2)ccn1 [Example 109, N-methyl-4-{[(4-piperazin-1-yl-1,2,5-thiadiazol-3-yl)oxy]methyl}pyridin-2-amine]",≥ 10000 nM
11,"CCCCNc1cc(COc2nsnc2N2CCNCC2)ccn1 [Example 111, N-butyl-4-{[(4-piperazin-1-yl-1,2,5-thiadiazol-3-yl)oxy]methyl}pyridin-2-amine]",≥ 10000 nM
12,"CNc1cc(COc2nsnc2N2CCN(C(=O)Nc3cc(C(F)(F)F)cc(C(F)(F)F)c3)CC2)ccn1 [Example 112, N-[3,5-bis(trifluoromethyl)phenyl]-4-[4-({[2-(methylamino)pyridin-4-yl]methyl}oxy)-1,2,5-thiadiazol-3-yl]piperazine-1-carboxamide]",< 50 nM
13,"CCNc1cc(COc2nsnc2N2CCN(C(=O)Nc3cc(C(F)(F)F)cc(C(F)(F)F)c3)CC2)ccn1 [Example 113, N-[3,5-bis(trifluoromethyl)phenyl]-4-[4-({[2-(ethylamino)pyridin-4-yl]methyl}oxy)-1,2,5-thiadiazol-3-yl]piperazine-1-carboxamide]",< 50 nM
14,"CCCCNc1cc(COc2nsnc2N2CCN(C(=O)Nc3cc(C(F)(F)F)cc(C(F)(F)F)c3)CC2)ccn1 [Example 114, N-[3,5-bis(trifluoromethyl)phenyl]-4-[4-({[2-(butylamino)pyridin-4-yl]methyl}oxy)-1,2,5-thiadiazol-3-yl]piperazine-1-carboxamide]",50 to 1000 nM
15,"O=C(Nc1cc(C(F)(F)F)cc(C(F)(F)F)c1)N1CCN(c2nsnc2OCc2ccnc(NCc3ccccc3)c2)CC1 [Example 115, N-[3,5-bis(trifluoromethyl)phenyl]-4-{4-[({2-[(phenylmethyl)amino]pyridin-4-yl}methyl)oxy]-1,2,5-thiadiazol-3-yl}piperazine-1-carboxamide]",50 to 1000 nM
